In patent US5347012A, “Naphthothiopyranone derivatives” (Taisho Pharmaceutical Co., Ltd., priority 1990, dated 1994):

Tested on: Emesis induced by cisplatin
Experiment: Anti-vomiting effect test: inhibition of cisplatin-induced emesis in suncus
Assay type: in vivo
Conditions: 45 min before cisplatin 30 mg/kg i.v., emesises over 2 hours; for % value to control (number of emesises): control = 100%
Text: Emesis induced by cisplatin is known to be inhibited by antagonists at 5-HT3 receptors. The anti-vomiting effect of the compound of the present invention was compared with that of the compound described in Example of Japanese Patent Kokai 2-209876 according to the method of Matsumoto et al [Japanese Journal of Pharmacology, vol. 48, pp. 303-306 (1988)].
The compound obtained in Example 4 (hereinafter referred to as "Compound A") and the compound described in Example 1 of Japanese Patent Kokai 2-209876 (hereinafter referred to as "Compound B") were each suspended in 0.4% aqueous carboxymethylcellulose solution to give test samples.
Group each of six suncus of either sex weighing 40-60 g (male) and 30-50 g (female) were used. Each animal was placed with a chronic intravenous cannula 3 days before vomiting test. The samples prepared above were orally administered in the doses of 0.03-3 mg/kg to each group of the animals. After 45 minutes 30 mg/kg of cisplatin was administered intravenously, and number of emesises was determined for a period of 2 hours. Number of emesises for a period of 2 hours of a control group treated with 0.4% carboxymethylcellulose suspension alone was determined as well.
Number of emesises obtained above was expressed as compared with 100% of the control, and IC50 value was calculated by number of emesises.

SMILES: Cc1nccn1Cc1csc2ccc3ccccc3c2c1=O.Cl [Compound A, 2-[(2-Methyl-1-imidazolyl)methyl]-1H-naphtho-[2,1-b]thiopyran-1-one hydrochloride]
- % value to control (number of emesises) (0.03 mg/kg oral): 77.8%
- % value to control (number of emesises) (0.3 mg/kg oral): 17.0%
- % value to control (number of emesises) (3 mg/kg oral): 4.4%
- ED50 (oral, doses 0.03-3 mg/kg, read-out: IC50 value (number of emesises)): 0.0904 mg/kg
